For one series, the target named is T1, Ephrin type-A receptor 6 (Homo sapiens, UniProt Q9UF33).
T1 sequence (Q9UF33 whole entry): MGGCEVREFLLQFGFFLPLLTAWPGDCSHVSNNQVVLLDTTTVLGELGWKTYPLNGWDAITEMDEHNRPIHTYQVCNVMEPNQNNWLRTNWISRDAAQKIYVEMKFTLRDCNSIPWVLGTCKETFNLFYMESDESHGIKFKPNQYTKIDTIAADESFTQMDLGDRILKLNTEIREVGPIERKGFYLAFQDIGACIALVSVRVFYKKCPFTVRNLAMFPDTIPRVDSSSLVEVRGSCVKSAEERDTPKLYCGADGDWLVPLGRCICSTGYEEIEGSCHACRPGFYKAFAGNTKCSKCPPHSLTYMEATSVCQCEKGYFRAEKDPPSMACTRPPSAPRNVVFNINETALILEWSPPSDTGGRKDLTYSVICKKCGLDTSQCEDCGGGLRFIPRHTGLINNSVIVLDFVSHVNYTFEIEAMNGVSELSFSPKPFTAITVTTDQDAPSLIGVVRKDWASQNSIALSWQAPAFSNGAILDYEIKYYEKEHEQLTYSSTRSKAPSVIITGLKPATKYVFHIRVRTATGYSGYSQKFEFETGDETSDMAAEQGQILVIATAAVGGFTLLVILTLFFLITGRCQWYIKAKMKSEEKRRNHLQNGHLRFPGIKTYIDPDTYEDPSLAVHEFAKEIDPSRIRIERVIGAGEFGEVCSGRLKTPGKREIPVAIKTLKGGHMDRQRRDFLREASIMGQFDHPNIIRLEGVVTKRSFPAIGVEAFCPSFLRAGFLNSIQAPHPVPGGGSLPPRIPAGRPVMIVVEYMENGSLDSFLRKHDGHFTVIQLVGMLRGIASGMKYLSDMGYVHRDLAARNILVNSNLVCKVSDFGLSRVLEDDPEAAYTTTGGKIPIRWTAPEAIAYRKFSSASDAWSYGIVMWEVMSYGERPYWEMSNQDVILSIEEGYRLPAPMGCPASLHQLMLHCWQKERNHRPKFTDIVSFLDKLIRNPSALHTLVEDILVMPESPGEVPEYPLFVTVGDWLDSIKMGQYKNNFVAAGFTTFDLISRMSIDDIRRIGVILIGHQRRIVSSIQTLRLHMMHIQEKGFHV
Kind of series: (§1) Displacement of biotinylated ephrin-A1-Fc from EphA6 (unknown origin) preincubated for 1 hr followed by biotinylated-ephrin-A1-Fc addition measured after 4 hrs by ELISA. For orientation: ELISA stands for enzyme-linked immunosorbent assay.

Series [1] concerns the target T2, Ephrin type-A receptor 6 (Homo sapiens) (UniProt Q9UF33).
T2 sequence (whole entry): T1 sequence (Q9UF33 whole entry)
Described as §1.

Series [2] in a line: Cmax in mouse at 30 mg/kg, po administered as single dose by HPLC-MS analysis. In kind it is ADME, organism-based. Further details: dose 30 mg/kg, route oral. The conditions noted are these: in vivo.
In the next series the target is Ephrin type-A receptor 5 (Homo sapiens, UniProt P54756). Kind of series: Displacement of biotinylated ephrin-A1-Fc from EphA5 (unknown origin) preincubated for 1 hr followed by biotinylated-ephrin-A1-Fc addition measured after 4 hrs by ELISA.
Chain of Ephrin type-A receptor 5 (P54756 whole entry): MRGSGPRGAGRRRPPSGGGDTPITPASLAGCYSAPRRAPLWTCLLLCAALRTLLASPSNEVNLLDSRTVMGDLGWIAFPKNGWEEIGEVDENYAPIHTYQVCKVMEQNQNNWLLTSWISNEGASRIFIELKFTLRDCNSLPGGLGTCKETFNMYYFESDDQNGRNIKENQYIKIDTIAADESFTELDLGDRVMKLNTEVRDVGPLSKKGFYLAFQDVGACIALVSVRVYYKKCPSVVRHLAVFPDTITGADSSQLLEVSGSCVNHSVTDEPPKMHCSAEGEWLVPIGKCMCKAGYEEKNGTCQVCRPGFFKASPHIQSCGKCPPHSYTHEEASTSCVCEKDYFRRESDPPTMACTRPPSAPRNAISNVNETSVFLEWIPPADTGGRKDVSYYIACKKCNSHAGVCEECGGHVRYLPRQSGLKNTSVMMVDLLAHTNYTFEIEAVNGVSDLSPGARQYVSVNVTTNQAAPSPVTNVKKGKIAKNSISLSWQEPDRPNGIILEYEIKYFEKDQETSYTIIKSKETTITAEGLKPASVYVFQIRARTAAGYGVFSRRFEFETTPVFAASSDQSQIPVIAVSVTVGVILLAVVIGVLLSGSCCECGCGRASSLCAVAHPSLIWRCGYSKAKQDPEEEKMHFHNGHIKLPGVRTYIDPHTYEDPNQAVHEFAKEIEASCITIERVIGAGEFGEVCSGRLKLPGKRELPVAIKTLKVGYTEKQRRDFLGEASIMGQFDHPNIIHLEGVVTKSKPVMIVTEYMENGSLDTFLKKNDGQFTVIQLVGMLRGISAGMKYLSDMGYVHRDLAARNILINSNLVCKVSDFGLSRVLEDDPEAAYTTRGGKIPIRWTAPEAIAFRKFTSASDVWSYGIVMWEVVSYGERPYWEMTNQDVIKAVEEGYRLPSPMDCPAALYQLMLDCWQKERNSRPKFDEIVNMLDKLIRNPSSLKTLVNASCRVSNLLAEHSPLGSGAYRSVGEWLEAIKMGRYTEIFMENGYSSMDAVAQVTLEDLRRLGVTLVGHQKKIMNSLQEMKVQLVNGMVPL
Series [3] is described as follows: n-octanol-water distribution coefficient, log D of the compound at pH 7.4 after 4 hrs by shake-flask method. In kind it is physicochemical.

As usually defined, the IC50 is the concentration needed to halve the response being measured. A lower IC50 goes with greater potency in that assay. Broadly, the Cmax is the highest concentration seen after dosing. In general, logD refers to lipophilicity at a set pH, counting ionised and neutral species. A higher logD goes with higher lipophilicity. In the case of `C[C@H](CCC(=O)N[C@@H](Cc1c[nH]c2ccccc12)C(=O)O)[C@H]1CC[C@H]2[C@@H]3CC=C4C[C@@H](O)CC[C@]4(C)[C@H]3CC[C@]12C`, the IC50 at Ephrin type-A receptor 6 stood at 3.5 µM; on Ephrin type-A receptor 5, 2.6 µM. Moreover, the inhibition entry (in series [1]; at Ephrin type-A receptor 5) was “Dose-dependent effect” throughout. The concentration in series [2] peaked (Cmax) at 1.4 µM. The logD at 4 h in series [3] amounted to 4.01.

The values are drawn from ChEMBL document CHEMBL3734669, “Δ(5)-Cholenoyl-amino acids as selective and orally available antagonists of the Eph-ephrin system” (Eur J Med Chem, 2015).
